From ChEMBL document CHEMBL5352419, “Design, synthesis, and biological evaluation of tetrahydroquinoline amphiphiles as membrane-targeting antimicrobials against pathogenic bacteria and fungi” (Eur J Med Chem, 2022)
Converted amounts (≈) assume the structure as drawn.

What was measured:
[1] = Hemolytic activity in rabbit RBC incubated for 1 hr by absorbance based microplate reader assay; format: toxicity, cell-based, Oryctolagus cuniculus, Erythrocyte; details: rabbit red blood cells (erythrocytes)
Staphylococcus aureus [2] = assay: Antimicrobial activity against methicillin-resistant Staphylococcus aureus N315 assessed as bacterial growth inhibition incubated for 24 hrs by Muller Hinton broth based dilution assay; format: functional
Candida albicans [3] = assay: Antimicrobial activity against Candida albicans ATCC10231 assessed as fungal growth inhibition incubated for 48 hrs by Sabouraud Dextrose broth based dilution assay; format: functional
Staphylococcus aureus [4] = assay: Antimicrobial activity against methicillin-resistant Staphylococcus aureus NCTC10442 assessed as bacterial growth inhibition incubated for 24 hrs by Muller Hinton broth based dilution assay; format: functional
Staphylococcus aureus [5] = assay: Antimicrobial activity against Staphylococcus aureus ATCC29213 assessed as bacterial growth inhibition incubated for 24 hrs by Muller Hinton broth based dilution assay; format: functional
Escherichia coli = assay: Antimicrobial activity against Escherichia coli ATCC25922 assessed as bacterial growth inhibition incubated for 24 hrs by Muller Hinton broth based dilution assay; format: functional
Candida albicans [6] = assay: Antimicrobial activity against Candida albicans CMCC98001 assessed as fungal growth inhibition incubated for 48 hrs by Sabouraud Dextrose broth based dilution assay; format: functional

| SMILES | HC50 at 1 h [1] [µg/mL] | MIC (Staphylococcus aureus [2]) [µg/mL] | MIC (Candida albicans [3]) [µg/mL] | MIC (Staphylococcus aureus [4]) [µg/mL] | MIC (Staphylococcus aureus [5]) [µg/mL] | MIC (Escherichia coli) [µg/mL] | MIC (Candida albicans [6]) [µg/mL] |
| --- | --- | --- | --- | --- | --- | --- | --- |
| CCCCCCCCCN1CCCc2cc(OCCCCCCCCNC(=N)N)ccc21 | > 200 | 3.12 (≈ 7.03 µM) | 0.78 (≈ 1.75 µM) | 3.12 (≈ 7.03 µM) | 3.12 (≈ 7.03 µM) | 25 (≈ 56.2 µM) | 1.56 (≈ 3.51 µM) |
| CCCCCCCN1CCCc2cc(OCCCCCCCCBr)ccc21 | > 200 | > 50 | > 50 | > 50 | > 50 | > 50 | > 50 |
| CCCCCCCCCN1CCCc2cc(O)ccc21 | > 200 | 12.5 (≈ 45.4 µM) | 50 (≈ 182 µM) | 12.5 (≈ 45.4 µM) | 12.5 (≈ 45.4 µM) | > 50 | 50 (≈ 182 µM) |
| FC(F)(F)CCCN1CCCc2cc(OCCCCBr)ccc21 | > 200 | 25 (≈ 63.4 µM) | > 50 | 12.5 (≈ 31.7 µM) | 25 (≈ 63.4 µM) | > 50 | > 50 |
| C[C@@H]1C/C=C/C=C/C=C/C=C/[C@H](O[C@@H]2O[C@H](C)[C@@H](O)[C@H](N)[C@@H]2O)C[C@@H]2O[C@](O)(C[C@@H](O)C[C@H]3O[C@@H]3/C=C/C(=O)O1)C[C@H](O)[C@H]2C(=O)O [NATAMYCIN] |  |  | 6.25 (≈ 9.39 µM) |  |  |  | 6.25 (≈ 9.39 µM) |
| CC(C)=CCN1CCCc2cc(OCCCCN3CCSCC3)ccc21 | > 200 | > 50 | > 50 | > 50 | > 50 | > 50 | > 50 |
| CCCN1CCCc2cc(OCCCCNC(=N)N)ccc21 | > 200 | 6.25 (≈ 20.5 µM) | > 50 | 12.5 (≈ 41.1 µM) | 12.5 (≈ 41.1 µM) | > 50 | > 50 |
| CCCCN1CCCc2cc(OCCCCBr)ccc21 | > 200 | 6.25 (≈ 18.4 µM) | > 50 | 6.25 (≈ 18.4 µM) | 12.5 (≈ 36.7 µM) | 50 (≈ 147 µM) | 50 (≈ 147 µM) |
| CC(C)=CCN1CCCc2cc(OCCCCCCCCCCBr)ccc21 | > 200 | 3.12 (≈ 7.16 µM) | 12.5 (≈ 28.6 µM) | 3.12 (≈ 7.16 µM) | 3.12 (≈ 7.16 µM) | 25 (≈ 57.3 µM) | 12.5 (≈ 28.6 µM) |
| CCCCCCCCCN1CCCc2cc(OCCCCBr)ccc21 | > 200 | 12.5 (≈ 30.5 µM) | 50 (≈ 122 µM) | 12.5 (≈ 30.5 µM) | 6.25 (≈ 15.2 µM) | 25 (≈ 60.9 µM) | 50 (≈ 122 µM) |
| CC(C)=CCN1CCCc2cc(OCCCBr)ccc21 | > 200 | 25 (≈ 73.9 µM) | 50 (≈ 148 µM) | 25 (≈ 73.9 µM) | 25 (≈ 73.9 µM) | > 50 | 50 (≈ 148 µM) |
| CCCCCCCN1CCCc2cc(O)ccc21 | > 200 | 12.5 (≈ 50.5 µM) | > 50 | 12.5 (≈ 50.5 µM) | 12.5 (≈ 50.5 µM) | > 50 | > 50 |
| CC(C)=CCC/C(C)=C/CN1CCCc2cc(OCCCCCCCCBr)ccc21 | > 200 | 6.25 (≈ 13.1 µM) | 12.5 (≈ 26.2 µM) | 6.25 (≈ 13.1 µM) | 6.25 (≈ 13.1 µM) | 25 (≈ 52.5 µM) | 12.5 (≈ 26.2 µM) |
| CC(C)=CCN1CCCc2cc(OCCCCN3CCCC3)ccc21 | > 200 | > 50 | > 50 | > 50 | > 50 | > 50 | > 50 |
| CC(C)=CCN1CCCc2cc(OCCCCCCCCBr)ccc21 | > 200 | > 50 | 50 (≈ 122 µM) | > 50 | > 50 | > 50 | 50 (≈ 122 µM) |
| Oc1ccc2c(c1)CCCN2CCCC(F)(F)F | > 200 | > 50 | > 50 | > 50 | > 50 | > 50 | > 50 |
| CC(C)=CCC/C(C)=C/CN1CCCc2cc(OCCCCBr)ccc21 | > 200 | 25 (≈ 59.5 µM) | > 50 | 25 (≈ 59.5 µM) | 25 (≈ 59.5 µM) | > 50 | 50 (≈ 119 µM) |
| CCCCCNCCCCOc1ccc2c(c1)CCCN2CC=C(C)C | 146 | 6.25 (≈ 17.4 µM) | > 50 | 6.25 (≈ 17.4 µM) | 6.25 (≈ 17.4 µM) | 50 (≈ 139 µM) | > 50 |
| CCCCCCCN1CCCc2cc(OCCCCBr)ccc21 | > 200 | 6.25 (≈ 16.3 µM) | 25 (≈ 65.4 µM) | 6.25 (≈ 16.3 µM) | 12.5 (≈ 32.7 µM) | 25 (≈ 65.4 µM) | 12.5 (≈ 32.7 µM) |
| CC(C)=CCN1CCCc2cc(OCCCCN(C)C)ccc21 | > 200 | 25 (≈ 79 µM) | > 50 | 25 (≈ 79 µM) | 25 (≈ 79 µM) | 25 (≈ 79 µM) | > 50 |
| Oc1ccc2c(c1)CCCN2 | > 200 | > 50 | > 50 | > 50 | > 50 | > 50 | > 50 |
